Test results as given in ChEMBL document CHEMBL5604063, “ASAP - DENV-2 NS2B-NS3 protease fluorescence dose response” (2024).
Several values for one entry are separate records, joined by “and”; a condition that tells them apart may be missing. Equal entries are not always repeated.

Target: Genome polyprotein (dengue virus type 2, UniProt P29990)
Type: functional, Thailand/16681/1984

Chain of Genome polyprotein (P29990 1346-1475 limits assumed): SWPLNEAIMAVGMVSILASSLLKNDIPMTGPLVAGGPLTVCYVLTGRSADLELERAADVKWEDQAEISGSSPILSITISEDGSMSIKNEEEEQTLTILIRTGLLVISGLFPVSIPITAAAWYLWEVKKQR
Chain of Genome polyprotein (P29990 1476-2093 limits assumed): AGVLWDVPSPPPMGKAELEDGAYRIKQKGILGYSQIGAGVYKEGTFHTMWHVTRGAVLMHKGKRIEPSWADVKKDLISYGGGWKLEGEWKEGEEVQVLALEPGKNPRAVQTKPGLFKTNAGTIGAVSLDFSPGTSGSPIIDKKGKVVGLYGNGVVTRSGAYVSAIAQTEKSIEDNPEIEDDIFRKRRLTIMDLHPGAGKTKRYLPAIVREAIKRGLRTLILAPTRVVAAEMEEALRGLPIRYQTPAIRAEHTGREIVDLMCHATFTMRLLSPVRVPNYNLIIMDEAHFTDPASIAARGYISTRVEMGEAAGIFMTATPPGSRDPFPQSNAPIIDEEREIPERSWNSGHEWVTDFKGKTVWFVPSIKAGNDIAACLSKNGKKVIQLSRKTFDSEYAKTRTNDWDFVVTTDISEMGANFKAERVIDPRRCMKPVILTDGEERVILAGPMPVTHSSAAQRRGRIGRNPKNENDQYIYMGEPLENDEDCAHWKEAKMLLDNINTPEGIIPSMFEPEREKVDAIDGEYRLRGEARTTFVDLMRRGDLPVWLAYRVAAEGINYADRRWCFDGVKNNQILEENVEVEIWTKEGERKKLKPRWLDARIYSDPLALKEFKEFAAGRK

CCn1nc(C)c(CN(C)Cc2ccc3c(c2)CCNCC3)c1C
IC50: > 99.5 µM

O=C(N[C@H](C(=O)NCc1cccc(CC(F)(F)F)c1)c1ccc(OCc2ccccc2)cc1)OCc1ccccc1
IC50: > 99.5 µM

CC[C@@H](C)c1nc(C)cc(N2CCC(n3ncc(N)c3C(F)(F)F)CC2)n1
IC50: > 99.5 µM

Cc1ccc([C@@H](NC(=O)OCc2ccccc2)C(=O)Nc2cccc(CN)c2)cc1C(F)(F)F
IC50: > 99.5 µM

CCn1c(=O)c(N2C[C@@H](CO)[C@H](c3cncn3C)C2)nc2ccccc21
IC50: > 99.5 µM

NC(=O)c1cccnc1N1CCCN(c2nc(-c3cc(Cl)cc(Cl)c3)no2)CC1
IC50: > 99.5 µM

Cc1cc(C)c([C@@H](NC(=O)OCc2ccccc2)C(=O)Nc2cccc(CN)c2)c(C)c1
IC50: > 99.5 µM

Cn1cc(C(=O)N[C@@H](C(=O)Nc2cccc(CN)c2)c2ccc(OCc3ccccc3)cc2)cn1
IC50: > 99.5 µM

CCc1cc(COc2ccc(S(=O)(=O)Nc3ccc(Cl)cc3C(=O)O)cc2)no1
IC50: 45.5 µM

CS(=O)(=O)NCc1ccc(CNC(=O)[C@@H](NC(=O)OCc2ccccc2)c2ccc(OCc3ccccc3)cc2)cc1
IC50: > 99.5 µM

O=Cc1ccc(F)c(C(=O)N2CCN(C3=NCCCN3)CC2)c1
IC50: > 99.5 µM

CCn1cnnc1COc1ccc(S(=O)(=O)Nc2ccc(Cl)cc2C(=O)O)cc1
IC50: > 99.5 µM

COc1ccc(CNC(=O)[C@@H](NC(=O)OCc2ccccc2)c2ccc(OCc3ccccc3)cc2)cn1
IC50: > 99.5 µM

CC(C)n1cc(CNC(=O)[C@@H](NC(=O)OCc2ccccc2)c2ccc(OCc3ccccc3)cc2)cn1
IC50: > 99.5 µM

Cc1ocnc1COc1ccc(S(=O)(=O)Nc2ccc(Cl)cc2C(=O)O)cc1
IC50: > 99.5 µM

COC(=O)[C@@H](C)NC(=O)c1cc(Cl)ccc1NS(=O)(=O)c1ccc(Oc2ccccc2Cl)cc1
IC50: 39 µM

O=C(N[C@@H](C(=O)Nc1ccncc1)c1ccc(OCc2ccccc2)cc1)OCc1ccccc1
IC50: > 99.5 µM

O=C(O)c1cc(Cl)ccc1NS(=O)(=O)c1ccc(OCc2ccccn2)cc1
IC50: > 99.5 µM

O=C(O)Cn1ccnc(N2CC[C@@H](CO)C2)c1=O
IC50: > 99.5 µM

CN(C)Cc1ccccc1CNC(=O)[C@@H](NC(=O)OCc1ccccc1)c1ccc(OCc2ccccc2)cc1
IC50: > 99.5 µM

NCc1cccc(NC(=O)[C@@H](NC(=O)OCc2ccccc2)c2ccc(C(F)(F)F)cc2)c1
IC50: 64.3 µM

CN(C)Cc1cncc(NC(=O)[C@@H](NC(=O)OCc2ccccc2)c2ccc(OCc3ccccc3)cc2)c1
IC50: > 99.5 µM

O=C(N[C@H](C(=O)NCc1ccc(F)cc1)c1ccc(OCc2ccccc2)cc1)OCc1ccccc1
IC50: > 99.5 µM

CN1CCN(Cc2ccccc2CNC(=O)[C@@H](NC(=O)OCc2ccccc2)c2ccc(OCc3ccccc3)cc2)CC1
IC50: > 99.5 µM

Cc1ccc2c(c1)CN(C(=O)c1ccc(C3(CN)CC3)cc1)C(C)(C)C2
IC50: > 99.5 µM

Cc1ncccc1-c1ccc([C@@H](NC(=O)OCc2ccccc2)C(=O)Nc2cccc(CN)c2)cc1
IC50: > 99.5 µM

O=C(N[C@@H](C(=O)Nc1ccc2c(n1)CNC2)c1ccc(OCc2ccccc2)cc1)OCc1ccccc1
IC50: > 99.5 µM

O=C(O)c1cc(Cl)cc(F)c1NS(=O)(=O)c1ccc(Oc2ccccc2Cl)cc1
IC50: 18.6 µM

CCOCCNC(=O)c1cc(Cl)ccc1NS(=O)(=O)c1ccc(Oc2ccccc2Cl)cc1
IC50: 20 µM and 20.5 µM

CS(=O)(=O)c1cccc(CNC(=O)[C@@H](NC(=O)OCc2ccccc2)c2ccc(OCc3ccccc3)cc2)c1
IC50: > 99.5 µM

NCCc1ccc(CNC(=O)[C@@H](NC(=O)OCc2ccccc2)c2ccc(OCc3ccccc3)cc2)cc1
IC50: 21.2 µM and 21.7 µM

Cn1c(C(=O)N2CCCc3ccc(C(F)F)cc32)cc2c1CCNC2
IC50: > 99.5 µM

NCCCc1ccc(C(=O)N2CC(c3cccc(Br)c3)C2)cc1
IC50: > 99.5 µM

N[C@H]1CC[C@H](CNC(=O)[C@@H](NC(=O)OCc2ccccc2)c2ccc(OCc3ccccc3)cc2)CC1
IC50: > 99.5 µM

CN(C(=O)c1ccc2c(c1)[C@H](CN)CCC2)C1CCN(CC(F)F)CC1
IC50: > 99.5 µM

NCc1cccc(NC(=O)[C@@H](NC(=O)c2cccnc2)c2ccc(OCc3ccccc3)cc2)c1
IC50: > 99.5 µM

Cc1cc(C=O)c(O)c(C(=O)N2CC[C@H](CN(C)C)C2)c1
IC50: > 99.5 µM

C[C@@H](Oc1ccc(S(=O)(=O)Nc2ccc(Cl)cc2C(=O)O)cc1)c1ccccc1F
IC50: 8.2 µM

Cc1n[nH]c2cc(C(=O)N3CCC(C)(NC(=O)[C@H]4C[C@H](N(C)C)C4)CC3)ccc12
IC50: > 99.5 µM

CN1CCC(c2nc(C(F)(F)F)n3c2CN(c2cccc(C(N)=O)n2)CC3)CC1
IC50: > 99.5 µM

CCn1c(=O)c(N2C[C@@H]3[C@H](C2)[C@H]3C(=O)OC)nc2ccccc21
IC50: > 99.5 µM

CC(C)c1cnc(COc2ccc(S(=O)(=O)Nc3ccc(Cl)cc3C(=O)O)cc2)o1
IC50: 55.7 µM

O=C(N[C@@H](C(=O)NCc1ccc(CN2CCCC2)cc1)c1ccc(OCc2ccccc2)cc1)OCc1ccccc1
IC50: > 99.5 µM

O=C(N[C@H](C(=O)NCc1ccccc1CO)c1ccc(OCc2ccccc2)cc1)OCc1ccccc1
IC50: > 99.5 µM

CN(C)Cc1ccc(CNC(=O)[C@@H](NC(=O)OCc2ccccc2)c2ccc(OCc3ccccc3)cc2)cc1
IC50: > 99.5 µM

O=C(N[C@@H](C(=O)NCc1cccc(CN2CCCCC2)c1)c1ccc(OCc2ccccc2)cc1)OCc1ccccc1
IC50: > 99.5 µM

NS(=O)(=O)c1cc(F)c(Cl)cc1N1CCN(c2ccnc(O)c2)CC1
IC50: > 99.5 µM

CCn1c(=O)c(N2CC[C@@]23CCN(C)C3)nc2ccccc21
IC50: > 99.5 µM

NCc1ccccc1C1CCN(C(=O)[C@H]2CCN3CC[C@H]2C3)CC1
IC50: > 99.5 µM

Cc1ccc([C@@H](NC(=O)OCc2ccccc2)C(=O)Nc2cccc(CN)c2)cc1C
IC50: > 99.5 µM

CS(=O)(=O)NCc1cccc(CNC(=O)[C@@H](NC(=O)OCc2ccccc2)c2ccc(OCc3ccccc3)cc2)c1
IC50: > 99.5 µM

C[C@@H](O)c1cccc(N2CCC(c3nc(N)ncc3F)CC2)n1
IC50: > 99.5 µM

O=C(O)c1ncc(F)cc1NS(=O)(=O)c1ccc(Oc2ccccc2Cl)cc1
IC50: 61.7 µM

CN(C)C(=O)[C@@H](NC(=O)OCc1ccccc1)c1ccc(OCc2ccccc2)cc1
IC50: > 99.5 µM

C[C@@H]1c2cccnc2CCN1Cc1cccc(CN(C)C)c1
IC50: > 99.5 µM

O=C(O)c1cc(Cl)ccc1NS(=O)(=O)c1ccc(OCc2cccnc2)cc1
IC50: > 99.5 µM

O=C(N[C@H](C(=O)NCc1cccc(CO)c1)c1ccc(OCc2ccccc2)cc1)OCc1ccccc1
IC50: > 99.5 µM

C[C@@H](NC(=O)c1cc(Cl)ccc1NS(=O)(=O)c1ccc(Oc2ccccc2Cl)cc1)C(=O)O
IC50: > 99.5 µM

Cc1cc(CNC(=O)[C@@H](NC(=O)OCc2ccccc2)c2ccc(OCc3ccccc3)cc2)cc(C)n1
IC50: > 99.5 µM

O=C(N[C@@H](C(=O)Nc1ccccn1)c1ccc(OCc2ccccc2)cc1)OCc1ccccc1
IC50: > 99.5 µM

NCc1cccc(NC(=O)[C@H]2c3ccc(Br)cc3CCN2C(=O)OCc2ccccc2)c1
IC50: > 99.5 µM

CN1CCN(Cc2cccc(CNC(=O)[C@@H](NC(=O)OCc3ccccc3)c3ccc(OCc4ccccc4)cc3)c2)CC1
IC50: > 99.5 µM

CCc1ccc([C@@H](NC(=O)OCc2ccccc2)C(=O)Nc2cccc(CN)c2)cc1
IC50: > 99.5 µM

NCc1cccc(NC(=O)[C@@H](NC(=O)OCc2ccccc2)c2ccc(-c3cccc4c3CCO4)cc2)c1
IC50: 27.8 µM

Cn1nc(C2CCN(C(=O)c3ccccc3CSc3nnc[nH]3)CC2)cc1O
IC50: > 99.5 µM

Nc1ccc(CNC(=O)[C@@H](NC(=O)OCc2ccccc2)c2ccc(OCc3ccccc3)cc2)nc1
IC50: > 99.5 µM

NCc1cccc(NC(=O)[C@@H](NC(=O)OCc2ccccc2)c2ccc(-c3cccc(F)c3)cc2)c1
IC50: 8.05 µM and 6.08 µM and 6.21 µM
